{"source": "ChEMBL document CHEMBL1240307", "about": "“A functional genomics approach to the mode of action of apratoxin A” (Nat Chem Biol, 2006)", "key": {"[1]": {"system": "A549", "assay": "Cytotoxicity against human A549 cells by sulforhodamine B assay", "format": "functional"}, "[2]": {"system": "NCI-H226", "assay": "Cytotoxicity against human NCI-H226 cells by sulforhodamine B assay", "format": "functional"}, "[3]": {"system": "NCI-H460", "assay": "Cytotoxicity against human NCI-H460 cells by sulforhodamine B assay", "format": "functional"}, "[4]": {"system": "COLO 205", "assay": "Cytotoxicity against human COLO205 cells by sulforhodamine B assay", "format": "functional"}, "[5]": {"system": "SW-620", "assay": "Cytotoxicity against human SW620 cells by sulforhodamine B assay", "format": "functional"}, "[6]": {"system": "SF-295", "assay": "Cytotoxicity against human SF295 cells by sulforhodamine B assay", "format": "functional"}, "[7]": {"system": "SF-539", "assay": "Cytotoxicity against human SF539 cells by sulforhodamine B assay", "format": "functional"}, "[8]": {"system": "SNB-19", "assay": "Cytotoxicity against human SNB19 cells by sulforhodamine B assay", "format": "functional"}, "[9]": {"system": "LOX IMVI", "assay": "Cytotoxicity against human LOXIMVI cells by sulforhodamine B assay", "format": "functional"}, "[10]": {"system": "Malme-3M", "assay": "Cytotoxicity against human MALME-3M cells by sulforhodamine B assay", "format": "functional"}, "[11]": {"system": "UACC-257", "assay": "Cytotoxicity against human UACC257 cells by sulforhodamine B assay", "format": "functional"}, "[12]": {"system": "UACC-62", "assay": "Cytotoxicity against human UACC62 cells by sulforhodamine B assay", "format": "functional"}, "[13]": {"system": "OVCAR-3", "assay": "Cytotoxicity against human OVCAR-3 cells by sulforhodamine B assay", "format": "functional"}, "[14]": {"system": "OVCAR-4", "assay": "Cytotoxicity against human OVCAR4 cells by sulforhodamine B assay", "format": "functional"}, "[15]": {"system": "OVCAR-8", "assay": "Cytotoxicity against human OVCAR8 cells by sulforhodamine B assay", "format": "functional"}, "[16]": {"system": "SK-OV-3", "assay": "Cytotoxicity against human SKOV3 cells by sulforhodamine B assay", "format": "functional"}, "[17]": {"system": "RXF 393", "assay": "Cytotoxicity against human RXF393 cells by sulforhodamine B assay", "format": "functional"}, "[18]": {"system": "DU-145", "assay": "Cytotoxicity against human DU145 cells by sulforhodamine B assay", "format": "functional"}, "[19]": {"system": "HT-29", "assay": "Antitumor activity against human HT-29 cells assessed as upregulation of RASSF4 mRNA expression at 2 nM after 3 hrs relative to control", "format": "functional"}, "[20]": {"system": "HT-29", "assay": "Antitumor activity against human HT-29 cells assessed as upregulation of RASSF4 mRNA expression at 10 nM after 3 hrs relative to control", "format": "functional"}, "[21]": {"system": "HT-29", "assay": "Antitumor activity against human HT-29 cells assessed as upregulation of RASSF4 mRNA expression at 10 nM after 6 hrs relative to control", "format": "functional"}, "[22]": {"system": "HT-29", "assay": "Antitumor activity against human HT-29 cells assessed as upregulation of RASSF4 mRNA expression at 2 nM after 12 hrs relative to control", "format": "functional"}, "[23]": {"system": "HT-29", "assay": "Antitumor activity against human HT-29 cells assessed as upregulation of DDIT4 mRNA expression at 2 nM after 3 hrs relative to control", "format": "functional"}, "[24]": {"system": "HT-29", "assay": "Antitumor activity against human HT-29 cells assessed as upregulation of DDIT4 mRNA expression at 10 nM after 3 hrs relative to control", "format": "functional"}, "[25]": {"system": "HT-29", "assay": "Antitumor activity against human HT-29 cells assessed as upregulation of DDIT4 mRNA expression at 2 nM after 6 hrs relative to control", "format": "functional"}, "[26]": {"system": "HT-29", "assay": "Antitumor activity against human HT-29 cells assessed as upregulation of DDIT4 mRNA expression at 10 nM after 12 hrs relative to control", "format": "functional"}, "[27]": {"system": "HT-29", "assay": "Antitumor activity against human HT-29 cells assessed as upregulation of HSPA1A mRNA expression at 2 nM after 6 hrs relative to control", "format": "functional"}, "[28]": {"system": "HT-29", "assay": "Antitumor activity against human HT-29 cells assessed as upregulation of HSPA1A mRNA expression at 10 nM after 6 hrs relative to control", "format": "functional"}, "[29]": {"system": "HT-29", "assay": "Antitumor activity against human HT-29 cells assessed as upregulation of HSPA1A mRNA expression at 10 nM after 12 hrs relative to control", "format": "functional"}, "[30]": {"system": "HT-29", "assay": "Antitumor activity against human HT-29 cells assessed as down-regulation of RAB11B mRNA expression at 10 nM after 3 hrs relative to control", "format": "functional"}, "[31]": {"system": "HT-29", "assay": "Antitumor activity against human HT-29 cells assessed as down-regulation of RAB11B mRNA expression at 10 nM after 6 hrs relative to control", "format": "functional"}, "[32]": {"system": "HT-29", "assay": "Antitumor activity against human HT-29 cells assessed as down-regulation of RAB11B mRNA expression at 2 nM after 12 hrs relative to control", "format": "functional"}, "[33]": {"system": "HT-29", "assay": "Antitumor activity against human HT-29 cells assessed as down-regulation of RAB11B mRNA expression at 10 nM after 12 hrs relative to control", "format": "functional"}, "[34]": {"system": "HT-29", "assay": "Antitumor activity against human HT-29 cells assessed as down-regulation of TAL1 mRNA expression at 10 nM after 3 hrs relative to control", "format": "functional"}, "[35]": {"system": "HT-29", "assay": "Antitumor activity against human HT-29 cells assessed as down-regulation of CDC25A mRNA expression at 10 nM after 6 hrs relative to control", "format": "functional"}, "[36]": {"system": "HT-29", "assay": "Antitumor activity against human HT-29 cells assessed as down-regulation of CCNE2 mRNA expression at 2 nM after 3 hrs relative to control", "format": "functional"}, "[37]": {"system": "HT-29", "assay": "Antitumor activity against human HT-29 cells assessed as down-regulation of CCNE2 mRNA expression at 10 nM after 6 hrs relative to control", "format": "functional"}, "[38]": {"system": "HT-29", "assay": "Antitumor activity against human HT-29 cells assessed as down-regulation of GTSE1 mRNA expression at 2 nM after 12 hrs relative to control", "format": "functional"}, "[39]": {"system": "HT-29", "assay": "Antitumor activity against human HT-29 cells assessed as upregulation of KCNK10 mRNA expression at 2 nM after 12 hrs relative to control", "format": "functional"}, "[40]": {"system": "HT-29", "assay": "Antitumor activity against human HT-29 cells assessed as upregulation of MGC4504 mRNA expression at 2 nM after 3 hrs relative to control", "format": "functional"}, "[41]": {"system": "HT-29", "assay": "Antitumor activity against human HT-29 cells assessed as upregulation of MGC4504 mRNA expression at 10 nM after 3 hrs relative to control", "format": "functional"}, "[42]": {"system": "HT-29", "assay": "Antitumor activity against human HT-29 cells assessed as upregulation of MGC4504 mRNA expression at 2 nM after 6 hrs relative to control", "format": "functional"}, "[43]": {"system": "U2OS", "assay": "Cell cycle arrest in human U2OS cells assessed as accumulation at S phase at 5 nM after 48 hrs by FACS analysis (reference value: 37.3%)", "format": "functional"}, "[44]": {"system": "U2OS", "assay": "Cell cycle arrest in human U2OS cells assessed as accumulation at S phase at 50 nM after 48 hrs by FACS analysis (reference value: 37.3%)", "format": "functional"}, "[45]": {"assay": "Cytotoxicity against resting human CD4+ T cell assessed as cell viability after 3 days by fluorescence detection method", "format": "cell-based", "settings": "72 h"}, "[46]": {"system": "U2OS", "assay": "Cell cycle arrest in human U2OS cells overexpressing mouse Fgfr1 assessed as accumulation at G1 phase at 15 nM after 48 hrs by CMV-GFP reporter assay method (reference value: 58%)", "format": "functional"}, "[47]": {"system": "U2OS", "assay": "Cell cycle arrest in human U2OS cells overexpressing mouse Fgfr1 assessed as accumulation at S phase at 15 nM after 48 hrs by CMV-GFP reporter assay method (reference value: 33%)", "format": "functional"}, "[48]": {"system": "U2OS", "assay": "Antiproliferative activity against human U2OS cells expressing constitutively active Stat3 mutant after 48 hrs by CMV-GFP reporter assay method", "format": "functional, cell-based"}, "[49]": {"settings": "read-out: LC50 (the source's name)"}}, "data": [{"smiles": "CC[C@H](C)[C@H]1C(=O)N2CCC[C@H]2C(=O)O[C@H](C(C)(C)C)C[C@@H](C)C[C@H](O)[C@H](C)C2=N[C@@H](/C=C(\\C)C(=O)N[C@@H](Cc3ccc(OC)cc3)C(=O)N(C)[C@@H](C)C(=O)N1C)CS2", "note": "[APRATOXIN A]", "values": [{"measurement": "GI50", "setting": "[1]", "value": 5.38, "unit": "nM"}, {"measurement": "GI50", "setting": "[2]", "value": 1.31, "unit": "nM"}, {"measurement": "GI50", "setting": "[3]", "value": 2.77, "unit": "nM"}, {"measurement": "GI50", "setting": "[4]", "value": 2.71, "unit": "nM"}, {"measurement": "GI50", "setting": "[5]", "value": 3.16, "unit": "nM"}, {"measurement": "GI50", "setting": "[6]", "value": 1.26, "unit": "nM"}, {"measurement": "CC50", "setting": "[6]; [49]", "value": 70.3, "unit": "nM"}, {"measurement": "GI50", "setting": "[7]", "value": 0.503, "unit": "nM"}, {"measurement": "CC50", "setting": "[7]; [49]", "value": 69.4, "unit": "nM"}, {"measurement": "GI50", "setting": "[8]", "value": 7, "unit": "nM"}, {"measurement": "GI50", "setting": "[9]", "value": 2.3, "unit": "nM"}, {"measurement": "CC50", "setting": "[9]; [49]", "value": 23.2, "unit": "nM"}, {"measurement": "GI50", "setting": "[10]", "value": 4.77, "unit": "nM"}, {"measurement": "GI50", "setting": "[11]", "value": 7.15, "unit": "nM"}, {"measurement": "GI50", "setting": "[12]", "value": 3.28, "unit": "nM"}, {"measurement": "GI50", "setting": "[13]", "value": 16.9, "unit": "nM"}, {"measurement": "GI50", "setting": "[14]", "value": "> 100", "unit": "nM"}, {"measurement": "GI50", "setting": "[15]", "value": 7.26, "unit": "nM"}, {"measurement": "GI50", "setting": "[16]", "value": 5.27, "unit": "nM"}, {"measurement": "GI50", "setting": "[17]", "value": 7.12, "unit": "nM"}, {"measurement": "GI50", "setting": "[18]", "value": 10.3, "unit": "nM"}, {"measurement": "fold change (FC)", "setting": "[19]", "value": 12.65}, {"measurement": "fold change (FC)", "setting": "[20]", "value": "<=2"}, {"measurement": "fold change (FC)", "setting": "[21]", "value": "<=2"}, {"measurement": "fold change (FC)", "setting": "[22]", "value": "<=2"}, {"measurement": "fold change (FC)", "setting": "[23]", "value": 2.49}, {"measurement": "fold change (FC)", "setting": "[24]", "value": 4.09}, {"measurement": "fold change (FC)", "setting": "[25]", "value": 10.37}, {"measurement": "fold change (FC)", "setting": "[26]", "value": 6.82}, {"measurement": "fold change (FC)", "setting": "[27]", "value": 2.56}, {"measurement": "fold change (FC)", "setting": "[28]", "value": 2.68}, {"measurement": "fold change (FC)", "setting": "[29]", "value": "<=2"}, {"measurement": "fold change (FC)", "setting": "[30]", "value": "<=2"}, {"measurement": "fold change (FC)", "setting": "[31]", "value": "<=2"}, {"measurement": "fold change (FC)", "setting": "[32]", "value": "<=2"}, {"measurement": "fold change (FC)", "setting": "[33]", "value": "<=2"}, {"measurement": "fold change (FC)", "setting": "[34]", "value": "<=2"}, {"measurement": "fold change (FC)", "setting": "[35]", "value": "<=2"}, {"measurement": "fold change (FC)", "setting": "[36]", "value": "<=2"}, {"measurement": "fold change (FC)", "setting": "[37]", "value": "<=2"}, {"measurement": "fold change (FC)", "setting": "[38]", "value": "<=2"}, {"measurement": "fold change (FC)", "setting": "[39]", "value": "<=2"}, {"measurement": "fold change (FC)", "setting": "[40]", "value": "<=2"}, {"measurement": "fold change (FC)", "setting": "[41]", "value": "<=2"}, {"measurement": "fold change (FC)", "setting": "[42]", "value": 7.57}, {"measurement": "inhibition at 0.005 µM", "setting": "[43]", "value": 5.5, "unit": "%"}, {"measurement": "inhibition at 0.05 µM", "setting": "[44]", "value": 0.8, "unit": "%"}, {"measurement": "IC50", "setting": "[45]", "value": 1800, "unit": "nM"}, {"measurement": "inhibition at 0.015 µM", "setting": "[46]", "value": 58, "unit": "%"}, {"measurement": "inhibition at 0.015 µM", "setting": "[47]", "value": 28, "unit": "%"}, {"measurement": "IC50", "setting": "[48]", "value": 50, "unit": "nM"}]}]}
